Laboratory results: patent US20240366589A1, “NHE3-BINDING COMPOUNDS AND METHODS FOR INHIBITING PHOSPHATE TRANSPORT” (Ardelyx, Inc., priority 2013, published 2024)
“Also recorded” adds a separate entry of the source.

Experiments:
[1] = tested on: absorption of sodium from the intestinal lumen; assay: Inhibition of intestinal sodium absorption: urinary sodium (uNa) 16 h after single oral dose in rats; format: in vivo, rat; conditions: for UNa (%): urinary Na excretion as % of vehicle
Outline: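 Eight-week-old Sprague-Dawley rats (n=6) given single oral gavage of compound or water vehicle in the late afternoon, then kept in metabolic cages with chow and water ad libitum. Urine collected over 16 h; sodium quantified by ion chromatography and expressed as % of vehicle mean, compared by one-way ANOVA with Dunnett's test.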

[2] = tested on: uremic rat model of CKD featuring vascular calcification; assay: Rat model of uremia-associated vascular calcification (5/6 nephrectomy, calcitriol, 0.9% P diet); format: in vivo
Text: Chronic kidney disease (CKD) has multiple pathogenic mechanisms, and advanced CKD is often characterized by disordered mineral metabolism (e.g., hyperphosphatemia, hypercalcemia) and vascular calcification. Studies were thus performed to test the effectiveness of the dihydrochloride salt of Cpd 002 (from Table E4, as the dihydrochloride salt) in a uremic rat model of CKD featuring vascular calcification. This model is characterized by renal insufficiency and regular active Vitamin D3 administration to promote hyperphosphatemia and vascular calcification (see Lopez et al., J. Am. Soc. Nephrol. 17:795-804, 2006). The study utilized Spraque-Dawley rats treated as follows: 5/6th nephrectomy by excision; regular calcitriol administration (active vitamin D3) 80 ng/kg i.p. 3/week; and fed a purified 0.9% P diet (inorganic phosphorus).
Rats were stratified into two experimental groups by serum creatinine levels of 0.8 to 1.5 mg/dl and body weight, fed drug-in-chow with powdered vehicle diet or the same diet with Cpd 002 (0.065 mg/g chow) mixed-in, and monitored for weekly body weight and selected serum parameters, daily clinical observations, and endpoint calcification. The study design is illustrated in FIG. 2.
Selected experimental groups were fed vehicle (n=12) or Cpd 002 (n=12) at enrollment (day 0).

[3] = tested on: adenine-induced uremic rat model; assay: Adenine-induced uremic rat model; format: in vivo
Experimental: The effects of Cpd 002 (from Table E4, as the dihydrochloride salt) were tested in an adenine-induced uremic rat model. Rats were fed a diet including 0.75% adenine and 1.2% phosphorus during the nephritis induction phase. The basal diet during the treatment phase was normal chow including 0.3% adenine and 0.6% phosphorus for 2 weeks. The rats were pair-fed the first 5 days (groups 1 and 2 to group 3, 4 days apart), and fed ad libitum afterwards. The treatment groups were as follows: vehicle, n=10; Cpd 002, 2 mg/kg/day drug-in-chow, n=10; and Cpd 002, 5 mg/kg/day drug-in-chow, n=12. Weekly measurements were taken for serum markers and kidney function. The study design is illustrated in FIG. 8A.

[4] = tested on: dietary salt-induced, partial renal ablation model of CKD; assay: Dietary salt-induced, partial renal ablation model of CKD in nephrectomized rats; format: in vivo, rat
Experimental: The effects of Cpd 002 (from Table E4, as the dihydrochloride salt) were tested in a dietary salt-induced, partial renal ablation model of CKD. The study design is illustrated in FIG. 11A (12 rats per group).

[5] = tested on: phosphorus and calcium levels in the urine of rats; assay: Urinary excretion of phosphate and calcium in rats (16 h overnight urine); format: in vivo, rat
[6] = tested on: intestinal phosphate uptake; assay: Pharmacodynamic study with 33P oral challenge in normal function rats; format: in vivo, rat; conditions: 8 mM Pi with 33P, 10 mg/kg, dihydrochloride salts, FIG. 1A
Experimental: The compounds identified as Cpds 003, 004, and 005 (from Table E4, as their dihydrochloride salts) were tested for the ability to block intestinal phosphate uptake in rats. Rats were orally challenged with dosing solutions composed of 5 ml/kg (˜1.3 ml) of 8 mM Pi with ^33P and +/−10 mg/kg of test compound. Also included were dosing solutions further composed of either (i) 75 mM glucose+4 mM Ca or (ii) 4 mM Ca.

[7] = endpoint day 27, 0.065 mg/g chow, vs vehicle
[8] = endpoint, 0.065 mg/g chow, vs vehicle
[9] = organ weight/body weight, 0.065 mg/g chow, vs vehicle
[10] = early time points, 2 and 5 mg/kg/day drug-in-chow
[11] = week three, highest dose 5 mg/kg/day
[12] = relative to vehicle-only control, 0.1-3.0 mg/kg, 16 h urine

`CN1Cc2c(Cl)cc(Cl)cc2[C@H](c2cccc(S(=O)(=O)NCCOCCOCCNC(=O)NCCCCNC(=O)NCCOCCOCCNS(=O)(=O)c3cccc([C@@H]4CN(C)Cc5c(Cl)cc(Cl)cc54)c3)c2)C1` [Cpd 002] was tested, and the “UNa (%)” value ([1]; single oral dose 1 mg/kg) was 11 @ 1 mg/kg %, the endpoint plasma aldosterone ([2]; 0.065 mg/g chow, vs vehicle) was “aldosterone increase” and the plasma creatinine ([2]; endpoint day 27, 0.065 mg/g chow, dihydrochloride salt, vs vehicle) was “reduced plasma creatinine”. For the same molecule, the “plasma FGF-23” value [2, 7] was “reduced plasma FGF-23”, the plasma phosphorus [2, 7] was “reduced plasma phosphorus; also recorded: anti-hyperphosphatemic effects” and the “calcium and phosphorus in the stomach (soft tissue calcification)” value [2, 8] was “reduced calcium and phosphorus in the stomach”. For the same molecule, the “vascular calcification as aortic mineral content” value [2, 8] was “reduced vascular calcification; also recorded: reduce associated vascular calcification”, the “endpoint heart weight (heart hypertrophy)” value [2, 9] was “lessened; also recorded: reduce both heart hypertrophy and renal hypertrophy” and the “endpoint kidney remnant weight (renal hypertrophy)” value [2, 9] was “lessened; also recorded: reduce both heart hypertrophy and renal hypertrophy”. The moribundity ([2]; treatment group vs vehicle) was “decreased moribundity”, the mortality outcome ([2]; treatment group vs vehicle) was “trend toward improved mortality outcome” and the serum creatinine [3, 10] was “reduced”. The serum phosphorus [3, 10] was “reduced”, the “heart remodeling (organ weight)” value ([3]; week three) was “trend towards lesser heart and kidney remodeling” and the “kidney remodeling (organ weight)” value ([3]; week three) was “trend towards lesser heart and kidney remodeling”. The “heart calcification (tissue mineralization)” value [3, 11] was “trend towards reduced heart and kidney calcification”, the “kidney calcification (tissue mineralization)” value [3, 11] was “trend towards reduced heart and kidney calcification” and the phosphorus urinary excretion ([4]; FIG. 11B) was “significantly reduced”. The blood pressure ([4]; dihydrochloride salt) was “improved”, the albuminuria ([4]; rat, in vivo) was “improved” and the fluid overload ([4]; rat, in vivo) was “improved”. For the same molecule, the heart hypertrophy ([4]; rat, in vivo) was “improved”, the kidney hypertrophy ([4]; rat, in vivo) was “improved” and the urine phosphorus mass ([5]; increasing dosages, relative to 48 mg/kg Renvela) was “significantly reduced”. The urine calcium mass [5, 12] was “reduced” and the urine phosphorus mass [5, 12] was “reduced”.

`CN1Cc2c(Cl)cc(Cl)cc2[C@@H](c2cccc(S(=O)(=O)NCCOCCOCCNC(=O)NCCCCNC(=O)NCCOCCOCCNS(=O)(=O)c3cccc([C@H]4CN(C)Cc5c(Cl)cc(Cl)cc54)c3)c2)C1` [Cpd 004] was tested, and the “effect on urinary Na (UNa)” value ([1]; in words) was “no significant effect”, the “UNa (%)” value ([1]; single oral dose 10 mg/kg) was 68 @ 10 mg/kg % and the “Pi uptake after 33P oral challenge” value [6] was “as potent at reducing Pi uptake as a persistent inhibitor such as Cpd 003”.
